Results: patent publication US20250009901A1, “COMPOSITION COMPRISING A COMBINATION OF IMMUNE CHECKPOINT INHIBITOR AND ANTIBODY-AMATOXIN CONJUGATE FOR USE IN CANCER THERAPY” (Heidelberg Pharma Research GmbH, priority 2020, published 2025)

Columns and labels:
[1] = test system: CD19-positive Raji cells (human Burkitt lymphoma); test: Raji xenograft mouse model with human PBMCs, ATAC and Avelumab (first Example 4, FIG. 5); type: in vivo, mice
Experimental: FIG. 5. Synergistic action of Avelumab and Anti-CD19-Amatoxin conjugate in the presence of peripheral blood mononuclear cells (PBMCs). Results of anti-tumoral studies using anti-PD-L1 antibody Avelumab (20 mg/kg, i.v., days 0, 3, 6, 8, 10, 13), or anti-CD19-amatoxin conjugate (ATAC, 0.1 and 0.3 mg/kg, respectively; single dose i.v. day 0), or a combination of Avelumab (20 mg/kg) and ATAC (0.1 and 0.3 mg/kg, respectively), in vivo in a Raji xenograft mice model system. Tumor volume was assessed at various time points after tumor cell inoculation.
The cytotoxic activity of the combination comprising an ICI and an ATAC has been assessed by use of a tumor mouse model in vivo. The study consisted of 6 experimental groups with 12 animals each. CD19-positive Raji cells (human Burkitt lymphoma, DSMZ) were premixed with human peripheral blood mononuclear cells (PBMCs, German Red Cross) and inoculated subcutaneously on study day 0. […] Tumor volumes were measured twice per week by calliper measurements and body weights were determined in parallel. […]

[2] = test system: CD79b-positive cell line BJAB; test: Extracellular ATP measurement (ICD marker); type: cell-based, human; details: Amanitin 100 nM, conjugates 50 nM antibody, 16, 40, 64 h post-treatment, vs media only
Experimental: (§1) The Her2-positive cell line BT474 is a human breast cancer cell line. The CD79b-positive cell line BJAB is a human Burkitt lymphoma-derived B cell line.
(§2) Cells of the Her2-positive cell line BT474 and of the CD79b-positive cell line BJAB, respectively, were plated at 8×10^4 cells per well in 100 μL of media. Flat bottom or U-bottom plates were used for BT474 or BJAB cells, respectively. The following day, media was changed. […] Then, cells were treated with media alone, Maytansine (100 nM), Amanitin (100 nM), Anti-HER2-Amanitin conjugate (50 nM antibody), or Anti-CD79b-Amanitin conjugate (50 nM antibody) for 16-72 h.
(§3) At 16, 40, and 64 h post-treatment, culture media was transferred to reaction tubes (Eppendorf) and centrifuged gently. Extracellular ATP concentrations were determined by use of the ENLITEN ATP Assay (Promega). Chemiluminescence was measured on a SpectraMax ME chemiluminescence reader (Molecular Devices).

[3] = test system: Her2-positive cell line BT474; test: Extracellular ATP measurement (ICD marker); type: cell-based, human; details: Amanitin 100 nM, conjugates 50 nM antibody, 16, 40, 64 h post-treatment, vs media only
Experimental: as §1, §2, §3

[4] = test system: CD79b-positive cell line BJAB; test: Calreticulin measurement (ICD marker), flow cytometry; type: cell-based, human; details: Amanitin 100 nM, conjugates 50 nM antibody, 24, 48, 72 h post-treatment, vs media only
Experimental: as §1, §2
(§4) Cells were assayed at 24, 48, and 72 h post-treatment. The adherent BT474 cells were lifted with a solution of highly purified, recombinant cell-dissociation enzymes (TrypLE, Thermo-Fisher) for 2 min. at 37° C. Both BT474 and BJAB cells were washed with PBS/2% FBS and then fixed in 0.5% paraformaldehyde for 5 min. After washing twice with cold PBS/2% FBS, cells were incubated for 5 min. with an Fc receptor binding inhibitor (FC block, eBioscience), blocking Fc receptor-mediated non-specific binding, followed by 30-min. incubation with Anti-Calreticulin-FITC (Abcam) or isotype control-FITC (Abcam). […] Propidium iodide (PI) was added, and samples were analyzed by flow cytometry on a FACSCanto instrument (Becton-Dickinson) using FACS Diva software.

[5] = test system: Her2-positive cell line BT474; test: as above; type: cell-based, human; details: Amanitin 100 nM, conjugates 50 nM antibody, 24, 48, 72 h post-treatment, vs media only
Experimental: as §1, §2, §4

[6] = test system: CD79b-positive cell line BJAB; test: Extracellular HMGB1 measurement (ICD marker), ELISA; type: cell-based, human; details: Amanitin 100 nM, conjugates 50 nM antibody, 24, 48, 72 h post-treatment, vs media only
Experimental: as §1, §2
(§5) Culture media was collected at 24, 48, and 72 h post-treatment. Analytes were captured on a Nunc Maxisorp 96-well plate coated at pH 9 with 1 μg/mL Anti-HMGB1 antibody (clone 1D5, Sigma), and plates were blocked with casein buffer (ThermoFisher). A standard curve was generated using recombinant human HMGB1 protein (R&D Systems) added to culture media that had been incubated at 37° C./5% CO2 for the same number of days as the experimental samples. This step had the effect of normalizing background signals observed in fresh culture media. […] After 30 min, the plate was washed with PBS/0.1% Tween-20, and bound secondary antibody was detected using Ultra TMB (Thermo Fisher); signals were read on a Molecular Devices Spectra Max M5 plate reader. […]

[7] = test system: Her2-positive cell line BT474; test: as above; type: cell-based, human; details: Amanitin 100 nM, conjugates 50 nM antibody, 24, 48, 72 h post-treatment, vs media only
Experimental: as §1, §2, §5

RNA-polymerase II = RNA-polymerase II (Homo sapiens, UniProt P24928); details: read-out: KD of the complex between amanitin and RNA-polymerase II; cited from earlier work

Row | Substance | Reduction of the tumor volumes as compared to the control group (PBS), single agents compared with each other ([1]; Avelumab 20 mg/kg alone, ATAC 0.1 mg/kg alone) | Mean TV (tumor volume) ([1]; day 31 post tumor cell inoculation, Avelumab 20 mg/kg i.v. days 0, 3, 6, 8, 10, 13) | ATP secretion [2] | ATP secretion [3] | cell surface exposure of calreticulin (CRT) [4] | cell surface exposure of calreticulin (CRT) [5] | HMGB1 release [6] | HMGB1 release [7] | Kd (RNA-polymerase II)
1 | Avelumab: PD-L1-specific antibody | comparable | 353.1 mm^3 | – | – | – | – | – | – | –
2 | Amanitin | – | – | did not induce | did not induce | did not induce | did not induce | did not induce | did not induce | 3 nM
